Assay results from US4857652A, “Chemiluminescent 1,2-dioxetane compounds” (priority 1988, dated 1989).
Where two headings read alike, the source gives them in different places.

Assays:
[1] = format: physicochemical; details: for base-induced decomposition, chemiluminescence: room temperature
Description: (§1) A solution of the dioxetane in a suitable solvent (e.g. o-xylene) was placed in the reaction vial as described above. The vial was placed in the sample holder which was maintained at a temperature such that thermal decomposition of the dioxetane was negligible. Instrument parameters were selected as above and data collection started. A solution of the releasing agent (e.g. base or fluoride) preferably in the reaction solvent was injected by syringe into the rapidly stirred dioxetane solution. The volume of releasing agent added was generally less than 5% of the total volume so that temperature fluctuation of the sample during the time course of the decay was minimal. The pseudo-first order decay was monitored for at least three half-lives.
1. Triggering the Chemiluminescence of Hydroxy-Substituted Dioxetanes with Base: Potassium tert-butoxide induced decomposition of 2b. […].

[2] = Triggering properties of further dioxetanes (general statement); format: physicochemical
Description: as §1

[3] = test system: Aryl esterase (carboxylic ester hydrolase) from porcine liver; assay: Enzymatic triggering of chemiluminescence with aryl esterase; format: biochemical; details: for effect of competing substrate on light intensity of 2e/esterase reaction: 10 μL of […] added at maximum emission, pH 7.6 phosphate buffer, 37° C.; for hydrolysis by the enzyme (UV spectroscopy): under the reaction conditions
Description: (§2) A secondary stock solution of the acetate-protected dioxetane 2e was made by evaporating an aliquot of the methylene chloride stock equivalent to 10 micromoles of dioxetane and dissolving in 5.0 mL of 2-methoxyethanol to give a final concentration of 0.002M. […] Buffer solutions prepared in distilled water were 0.05M phosphate pH 7.6 and 8.0, 0.02M Tris (tris-hydroxymethylaninomethane maleate) pH 7.6, and pH 9.0 phosphate/borate buffer. Aryl esterase (also called carboxylic ester hydrolase (P-5221)) from porcine liver was purchased from Sigma Chemical Co. as a suspension of 11 mg of protein per mL in 3.2M (NH4)2 SO4 solution pH 8.0. Each mg of protein is equivalent to 260 Units, where 1 Unit is defined as the amount which will hydrolyze 1 micromole of ethyl butyrate in 1 minute at pH 8.0, 25° C. […] Injection of 1 μL of […] of aryl esterase to the stirred solution caused a chemiluminescent signal to appear. The intensity reached a maximum at about 3 minutes and decayed over a 30 minute period.
(3.) When distilled water was substituted for the Tris buffer, no chemiluminescence signal was observed, but on adding Tris buffer to this solution light emission similar to that above was produced. […] Addition of untreated enzyme preparation to this solution again produced light. […] The emission could be totally extinguished by addition of sufficient SDS. The decrease in light emission is not due to photophysical quenching of the excited state since thermal decomposition in the same solvent system at elevated temperatures results in readily detectable chemiluminescence.
This type of behavior explains the effect of the addition of the known esterase substrates α-naphthyl acetate and β-naphthyl acetate. […] A solution of 25 μL of the dioxetane stock (0.002M) in 3 mL of pH 7.6 phosphate buffer maintained at 37° C. was treated with 5 μL of the enzyme to initiate the chemiluminescence. At the point of maximum emission 10 μL of 0.011M solution of either α- or β-naphthyl acetate were added.

[4] = format: physicochemical
Description: as §1
2. Triggering the Chemiluminescence of Silyloxy-Substituted Dioxetanes with Fluoride Ion: Fluoride ion induced decomposition of 2c. […]. […]. A spectrum of the chemiluminescence obtained from the fluoride triggering of 2c in 1:1 aqueous/2-methoxyethanol is shown in FIG. 1 with the solid line. The fluorescence of the cleavage product (methyl 6-hydroxy-2-naphthoate) from the dioxetane is also shown with the dashed line for comparison.

[5] = format: physicochemical; details: for Ea (activation energy for decomposition) / k at 25° C.: in xylene
Description: Rates of dioxetane decomposition were monitored by the decay of chemiluminescence of aerated solutions. A cylindrical Pyrex vial equipped with magnet stir bar was filled with 3-4 mL of the reaction solvent, sealed with a Teflon-lined screw cap and placed in the thermostatted sample block of the chemiluminescence-measuring apparatus (Black Box). Temperature control was provided by an external circulating water bath. Appropriate values for the instrument gain and optical slit size were selected. […]. The vial was sealed with a Teflon-lined screw cap to prevent evaporation when high temperatures were used. Measurement of the signal was begun by opening the shutter. The chemiluminescent decay was generally recorded for at least three half-lives. Calculation of the first-order rate constant, k, from the In(Intensity) vs. time data was performed by a computer program utilizing a standard least-squares treatment. The correlation coefficient, r, was typically at least 0.999 and varied less than 5% between replicate samples. The observed rate was not measurably concentration dependent.
Activation parameters for decomposition of the dioxetanes were calculated from plots of In k.vs. 1/T (Arrhenius eq.) or In k/t vs. 1/T (Eyring eq.) by a standard least-squares linear regression analysis.

[6] = Stability of dioxetane in aqueous buffers (IMAX with delay before the enzyme was added); format: physicochemical
Description: Stability of Enzyme and Dioxetane to Reaction Conditions. Many dioxetanes are known to be destroyed via a non-luminescent pathway by acid catalyzed processes in aprotic solvents. Similarly, amines are also known to cause the catalytic destruction of dioxetanes via an electron-transfer process. The stability of the dioxetane to the aqueous buffers used in the enzyme reactions, especially Tris buffer, was a matter of concern. A series of experiments were performed to assess the stability of the dioxetane in these buffers over the expected time course of a typical run. A comparison was made between the maximum light intensity produced for a given buffer and temperature with delays of 0 and 30 minutes before the enzyme was added. If the dioxetane were decomposing in the buffer then IMAX of the run where the dioxetane was exposed to the buffer for 30 minutes would be lower provided the enzyme is not saturated. […] In 0.05M phosphate buffer, pH 7.6 at 25° C. and 37 ° C. the percent decrease in IMAX due to the 30 minute delay was, respectively, 0 and 7% while in 0.02M Tris buffer, pH 7.6 at 25° C. a 12% decrease was found and at 37° C. after a delay of one hour a 34% decrease occurred.

[7] = target: T1, Acetylcholinesterase from human erythrocytes (Homo sapiens, UniProt P22303); assay: Enzymatic triggering of chemiluminescence with acetylcholinesterase; format: biochemical; details: 10 μL stock in 3 mL 0.05M phosphate buffer pH 8.0, 37.0° C.
T1 construct: purchased Sigma Chemical Co. C-3389; host or cells: human erythrocytes
Source text: Acetylcholinesterase, an enzyme of considerable biological significance, hydrolyzes acetylcholine to choline and acetic acid under physiological conditions. It was of interest to determine whether this enzyme would also initiate the chemiluminescent decomposition of the acetyl-protected dioxetane 2e by removal of the acetyl group. Acetylcholinesterase (C-3389) from human erythrocytes was purchased from Sigma Chemical Co. as a lyophilized powder containing phosphate buffer salts. […]. Addition of more dioxetane during this period generated more light.

[8] = format: physicochemical; details: 0.002M in 2-methoxyethanol, stored at 0° C.
Description: as §2

[9] = compared with dioxetanes 2a-c and 2e
[10] = 0.3 μmol dioxetane, 0.26 units aryl esterase, pH 7.6 Tris buffer, 25° C.
[11] = polar aprotic solvents such as acetonitrile

T1 sequence (P22303 other isoform, or with tags, fused parts or gaps): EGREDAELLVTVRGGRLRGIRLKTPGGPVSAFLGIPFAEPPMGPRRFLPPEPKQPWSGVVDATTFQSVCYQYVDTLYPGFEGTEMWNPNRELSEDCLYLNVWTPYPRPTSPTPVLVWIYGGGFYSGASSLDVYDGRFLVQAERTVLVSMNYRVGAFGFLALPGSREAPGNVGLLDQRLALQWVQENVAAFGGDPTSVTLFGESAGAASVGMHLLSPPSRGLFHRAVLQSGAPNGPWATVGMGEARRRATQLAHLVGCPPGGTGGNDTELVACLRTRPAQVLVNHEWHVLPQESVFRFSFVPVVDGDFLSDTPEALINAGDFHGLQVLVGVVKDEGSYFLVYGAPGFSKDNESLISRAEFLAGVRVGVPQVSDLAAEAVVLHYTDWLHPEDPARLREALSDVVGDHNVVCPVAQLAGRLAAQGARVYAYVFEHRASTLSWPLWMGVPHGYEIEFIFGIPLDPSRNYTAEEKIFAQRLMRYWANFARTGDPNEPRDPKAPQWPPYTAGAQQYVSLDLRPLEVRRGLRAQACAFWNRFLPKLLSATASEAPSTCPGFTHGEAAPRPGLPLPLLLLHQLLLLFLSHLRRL

Q: With `COC1(c2cccc(O)c2)OOC12C1CC3CC(C1)CC2C3` (centres unmarked) [Dioxetane 8a] as the compound, how does the “base-induced decomposition, chemiluminescence” value [1] read?
A: The value was “produced chemiluminescence at room temperature”.

Q: For `Oc1ccc2c(c1)Oc1ccccc1C21OOC12C1CC3CC(C1)CC2C3` (centres unmarked) [Dioxetane 6a], which “base-induced decomposition, chemiluminescence” value [1] is on record?
A: Its value is “produced chemiluminescence at room temperature”.

Q: And the triggering properties [2, 9]?
A: The triggering properties was “triggering properties similar to dioxetanes 2a-c and 2e”.

Q: Which “effect of competing substrate on light intensity of 2e/esterase reaction” value [3] does the source give for `CC(=O)Oc1ccc2ccccc2c1` [β-naphthyl acetate] here?
A: The value was “rapid decrease in light intensity was noted followed by restoration of the original intensity within less than one minute”.

Q: What about the “hydrolysis by the enzyme (UV spectroscopy)” value [3] of the same compound?
A: The value was “hydrolyzed by the enzyme in seconds”.

Q: With `CC(=O)Oc1cccc2ccccc12` [α-naphthyl acetate] as the compound, how does the “effect of competing substrate on light intensity of 2e/esterase reaction” value [3] read?
A: Its value is “rapid decrease in light intensity was noted followed by restoration of the original intensity within less than one minute”.

Q: And the “hydrolysis by the enzyme (UV spectroscopy)” value [3]?
A: The value was “hydrolyzed by the enzyme in seconds”.

Q: Which results are given for `Oc1ccc2c(c1)C1(OOC13C1CC4CC(C1)CC3C4)c1ccccc1-2` (centres unmarked) [Dioxetane 4a]?
A: base-induced decomposition, chemiluminescence [1]: produced chemiluminescence at room temperature; triggering properties [2, 9]: triggering properties similar to dioxetanes 2a-c and 2e

Q: What does the source list for `COC1(c2ccc3cc(O[Si](c4ccccc4)(c4ccccc4)C(C)(C)C)ccc3c2)OOC12C1CC3CC(C1)CC2C3` (centres unmarked) [Dioxetane 2d]?
A: chemiluminescence in polar aprotic solvents [4]: bright chemiluminescence; triggering properties [2]: triggering properties similar to dioxetanes 2a-c and 2e

Q: For `CC(=O)Oc1ccc2c(c1)Oc1ccccc1C21OOC12C1CC3CC(C1)CC2C3` (centres unmarked) [Dioxetane 6c], which triggering properties [2, 9] is on record?
A: The triggering properties was “triggering properties similar to dioxetanes 2a-c and 2e”.

Q: What does the source list for `COC1(c2ccc3cc(OC(C)=O)ccc3c2)OOC12C1CC3CC(C1)CC2C3` (centres unmarked) [Dioxetane 2e, 4-(6-Acetoxy-2-naphthyl)-4-methoxyspiro[1,2-dioxetane-3,2'-adamantane]]?
A: persistence of thermal chemiluminescence ([5]; aliquot in 3 mL o-xylene at 95° C.): persisted for several hours; period of decay of chemiluminescence [3, 10]: 30 min; time at which intensity reached a maximum [3, 10]: about 3 minutes; maximum light intensity, IMAX, versus temperature ([3]; 1 μL enzyme, Tris buffer, 25°, 37° and 50° C.): increased with increasing temperature; chemiluminescence signal without enzyme ([3]; 150 μL stock in 3.0 mL pH 7.6 Tris buffer, 25° C., before enzyme): no chemiluminescence signal was detected; percent decrease in IMAX due to delay ([6]; 0.02M Tris buffer pH 7.6, 25° C., 30 minute delay): 12%; percent decrease in IMAX due to delay ([6]; 0.02M Tris buffer pH 7.6, 37° C., delay of one hour): 34%; percent decrease in IMAX due to delay ([6]; 0.05M phosphate buffer pH 7.6, 25° C., 30 minute delay): 0%; percent decrease in IMAX due to delay ([6]; 0.05M phosphate buffer pH 7.6, 37° C., 30 minute delay): 7%; duration of light emission [7]: 20 s; stability of stock solution [8]: stable indefinitely

Q: With `COC1(c2ccc3cc(O[Si](C)(C)C(C)(C)C)ccc3c2)OOC12C1CC3CC(C1)CC2C3` (centres unmarked) [Dioxetane 2c] as the compound, how does the “half-life of decomposition in the absence of fluoride ion” value ([5]; 25° C., no fluoride) read?
A: The value was 2.5 years.

Q: What about the “Ea (activation energy for decomposition)” value [5] of the same compound?
A: Its value is 27.0.

Q: What about the “k at 25° C.” value ([5]; 25° C.) of the same compound?
A: The value was 8.72e-09 s⁻¹.

Q: What about the “half-life of chemiluminescence decay, fluoride triggered” value ([4]; 10^-4 M in 0.01M tetrabutylammonium fluoride in 2-methoxyethanol, room temperature, 100 µM) of the same compound?
A: The value was “about 20 minutes”.

Q: Which “chemiluminescence in polar aprotic solvents” value [4] does the source give for `CC(C)(C)[Si](C)(C)Oc1ccc2c(c1)Oc1ccccc1C21OOC12C1CC3CC(C1)CC2C3` (centres unmarked) [Dioxetane 6b] here?
A: Its value is “bright chemiluminescence”.

Q: What about the triggering properties [2] of the same compound?
A: The triggering properties was “triggering properties similar to dioxetanes 2a-c and 2e”.

Q: Which “chemiluminescence in polar aprotic solvents” value [4, 11] does the source give for `CC(C)(C)[Si](C)(C)Oc1ccc2c(c1)C1(OOC13C1CC4CC(C1)CC3C4)c1ccccc1-2` (centres unmarked) [Dioxetane 4b, Dispiro[adamantane-2,3'-[1,2]dioxetane-4',9"-(2-tert-butyldimethylsilyloxy-9-fluorene)]] here?
A: The value was “bright chemiluminescence”.

Q: For `COC1(c2ccc3cc(O)ccc3c2)OOC12C1CC3CC(C1)CC2C3` (centres unmarked) [Dioxetane 2b, 4-(6-Hydroxy-2-naphthyl)-4-methoxyspiro[1,2-dioxetane-3,2'-adamantane]], which “Ea (activation energy for decomposition)” value [5] is on record?
A: The value was 29.7.

Q: And the “k at 25° C.” value ([5]; 25° C.)?
A: The value was 3.83e-09 s⁻¹.

Q: What about the “half-life of chemiluminescence decay, base triggered” value ([1]; 10^-4 M in o-xylene, potassium t-butoxide 0.005M, 25° C., 100 µM) of the same compound?
A: Its value is “approximately 20 seconds”.

Q: What about the base triggered chemiluminescence ([1]; in methanol with KOH or in o-xylene with n-BuLi) of the same compound?
A: The base triggered chemiluminescence was “bright blue chemiluminescence with similar decay rates”.

Q: With `COC1(c2cccc(O[Si](C)(C)C(C)(C)C)c2)OOC12C1CC3CC(C1)CC2C3` (centres unmarked) [Dioxetane 8b, 4-(3-tert-Butyldimethylsilyloxyphenyl)-4-methoxyspiro[1,2-dioxetane-3,2'-adamantane]] as the compound, how does the “chemiluminescence in polar aprotic solvents” value [4, 11] read?
A: The value was “bright chemiluminescence”.

Q: Which “Ea (activation energy for decomposition)” value [5] does the source give for `COC1(c2ccc3ccccc3c2)OOC12C1CC3CC(C1)CC2C3` (centres unmarked) [Dioxetane 2a, 4-Methoxy-4-(2-naphthyl)spiro[1,2-dioxetane-3,2'-adamantane]] here?
A: Its value is 29.7.

Q: What about the “k at 25° C.” value ([5]; 25° C.) of the same compound?
A: The value was 3.17e-09 s⁻¹.

Q: For `CCCCCCCCCCCCOS(=O)(=O)[O-].[Na+]` [sodium lauryl sulfate (SDS), sodium lauryl sulfate], which “effect of enzyme inhibitor on light emission of 2e/esterase reaction” value ([3]; added at maximum emission, Tris buffer, 1.5 μL enzyme) is on record?
A: Its value is “irreversible decrease in the intensity”.
